Experimental findings from paper PMC8043927, “Mycelial culture extracts of selected wood-decay mushrooms as a source of skin-protecting factors” (Biotechnology Letters, 2021) are described below.

This assay deals with T1, hyaluronidase.
T1 construct: gene SPAM1; bovine testicular enzyme is the usual preparation
Nature of the assay: turbidimetric assay with CTAB, […] nm. To be noted: hyaluronic acid substrate, acetate buffer pH 4.5, 37 °C, 45 min. Type of assay: biochemical.

Regarding `O=c1c(O)c(-c2ccc(O)c(O)c2)oc2cc(O)cc(O)c12` [quercetin (dihydrate)], the “Inhibition of hyaluronidase activity / Positive control” value is on record as 509.79 µg/mL.
